According to paper PMC7392643, “Antibiotic fidaxomicin is an RdRp inhibitor as a potential new therapeutic agent against Zika virus” (BMC Medicine, 2020):
Where two headings read alike, the source gives them in different places.

Experiments:
[1] = test system: STAT2 degradation induced by NS5; assay: Western blotting of STAT2 in 293T cells transfected with ZIKV NS5; format: cell-based, human
Procedure: (§1) Tissue specimens obtained from mice or cells were lysed with RIPA lysis buffer (Millipore, Bedford, MA) containing a cocktail of protease and phosphatase inhibitors (Sigma-Aldrich, St. Louis, MO, USA). Protein concentrations were measured with a bicinchoninic acid (BCA) protein assay (Thermo Fisher Scientific, Rockford, IL, USA). Protein samples were separated by sodium dodecyl sulfate-polyacrylamide gel electrophoresis (SDS-PAGE) and transferred onto a polyvinylidene difluoride (PVDF) membrane. Non-specific antibody binding sites were blocked with 5% non-fat milk in Tris-buffered saline (TBS) (20 mM Tris-HCl [pH 7.6], 135 mM NaCl, and 0.1% Tween 20) for 1 h at room temperature and then incubated with the following primary antibodies: anti-STAT2 (1:1000, sc166201, Santa Cruz Biotechnology, Santa Cruz, CA, USA), anti-ZIKV E (1:1000, BF-1176-56, BioFront Technologies, Tallahassee, USA), anti-ZIKV NS5 (1:1000, BF-6A1-100UG, BioFront), and anti-ZIKV NS3 (1:1000, GTX133309, GeneTex, Alton Pkwy, Irvine, CA, USA). Anti-GAPDH (1:2000, ab181602, Abcam, Cambridge, MA, USA) or mouse anti-GAPDH (1:1000, ab9484, Abcam) was used as a loading control. […] The relative protein level was quantified by densitometry and normalized to GAPDH or mGAPDH level using Image J software (NIH, Bethesda, MD, USA).

[2] = test system: ZIKV MR766 strain; assay: In vitro antiviral assay, plaque assay, ZIKV MR766; format: cell-based; conditions: Zika virus, 48 h
Procedure: Various cell lines, including SNB19 (6 × 10^4/well, 10% FBS DMEM), A172 (7 × 10^4/well, 10% FBS DMEM), Vero (6 × 10^4/well 10% FBS DMEM), Huh7 (7 × 10^4/well, 10% FBS DMEM), HUVECs (7 × 10^4/well, 15% FBS M199 medium supplemented with 2 mM L-glutamine, 0.02 mg/mL endothelial cell growth supplement, and 0.05 mg/mL heparin), and A549 (6 × 10^4/well, 5% FBS DMEM), were plated in 12-well plates and allowed to attach overnight, followed by infection with ZIKV (ZG-01 strain or MR766 strain, respectively, at indicated MOI) in the presence of different concentrations of fidaxomicin, ribavirin, or vehicle control for 1 h, followed by two washes with 1 × PBS and incubated with fresh medium (without virus) consisting of corresponding concentrations of the compounds for further 48 h. The cell supernatants were collected to quantify ZIKV infection by plaque assay as previously described [47] or by RT-qPCR.

[3] = test system: ZIKV ZG-01 strain; assay: In vitro antiviral assay, RT-qPCR, ZIKV ZG-01; format: cell-based; conditions: Zika virus
Procedure: The anti-ZIKV activity of fidaxomicin and ribavirin was evaluated in vitro by plaque assay. Various cell lines, including SNB19 (6 × 10^4/well, 10% FBS DMEM), A172 (7 × 10^4/well, 10% FBS DMEM), Vero (6 × 10^4/well 10% FBS DMEM), Huh7 (7 × 10^4/well, 10% FBS DMEM), HUVECs (7 × 10^4/well, 15% FBS M199 medium supplemented with 2 mM L-glutamine, 0.02 mg/mL endothelial cell growth supplement, and 0.05 mg/mL heparin), and A549 (6 × 10^4/well, 5% FBS DMEM), were plated in 12-well plates and allowed to attach overnight, followed by infection with ZIKV (ZG-01 strain or MR766 strain, respectively, at indicated MOI) in the presence of different concentrations of fidaxomicin, ribavirin, or vehicle control for 1 h, followed by two washes with 1 × PBS and incubated with fresh medium (without virus) consisting of corresponding concentrations of the compounds for further 48 h. The cell supernatants were collected to quantify ZIKV infection by plaque assay as previously described or by RT-qPCR. […] The anti-DENV activity of fidaxomicin was evaluated in vitro by RT-qPCR.
RNA from cell supernatants or from mouse tissues (brain and testis) was prepared with RaPure Viral RNA/DNA Kit (Magen, Guangzhou, China) according to the manufacturer’s instructions. The first-strand cDNA was synthesized using random hexamer primers with the Revert Aid Reverse Transcription Kit (Thermo Fisher Scientific, Rockford, IL, USA), and real-time PCR was carried out by using LightCycler® 480 Probes Master (2× reaction mix buffer including DNA polymerase) (no. 04887301001, Roche, Basel, Switzerland). Virus concentration was determined by interpolation onto an internal standard curve made up of a 7-point dilution series of in vitro transcribed RNA and tissue weight to quantify ZIKV RNA as copies/gram tissue. Primer sets used for real-time PCR are shown in Additional file 1: Table S1. Reverse transcription and real-time PCR were performed for at least three times.

[4] = Text: a. […] Data are expressed as mean ± SD. WBC: white blood cells; Lymph: lymphocytes; Mon: monocytes; Gran: granulocytes; RBC: red blood cells; HGB: hemoglobin concentration; HCT: hematocrit; MCV: mean corpuscular volume; MCH: mean corpuscular hemoglobin; MCHC: mean corpuscular hemoglobin concentration; RDW: red blood cell distribution width; PLT: platelets; MPV: mean platelet volume; PDW: platelet distribution width.
a. […] Data are expressed as mean ± SD. ALT: alanine aminotransferase; AST: aspartate aminotransferase; T-BIL: total bilirubin; ALB: albumin; γ-GT: γ-glutamyltransferase; ALP: alkaline phosphatase; TBA: total bile acid; BUN: blood urea nitrogen; UA: uric acid; CR: creatinine; T-CHO: total cholesterol; TG: triglyceride.
a. […] Data are expressed as mean ± SD.

[5] = test system: ZIKV (ZG-01); assay: Western blotting of ZIKV proteins in infected SNB19 cells; format: cell-based, Zika virus
Procedure: as §1

[6] = in vivo, po; cited from earlier work

CCc1c(Cl)c(O)c(Cl)c(O)c1C(=O)O[C@H]1[C@H](O)[C@H](OC)[C@H](OC/C2=C\C=C\C[C@H](O)/C(C)=C/[C@H](CC)[C@@H](O[C@@H]3OC(C)(C)[C@@H](OC(=O)C(C)C)[C@H](O)[C@@H]3O)/C(C)=C/C(C)=C/C[C@@H]([C@@H](C)O)OC2=O)O[C@@H]1C [Fidaxomicin]
effect on STAT2 degradation in presence of NS5 [1]: did not prevent the degradation of STAT2
EC50 ([2]; A549 cells): 13 ± 4.4 µM
EC90 ([2]; A549 cells): 42.2 ± 4.6 µM
EC50 ([2]; Huh-7, Huh7 cells): 7.3 ± 2.5 µM
EC90 ([2]; Huh-7, Huh7 cells): 16.2 ± 3.9 µM
EC50 ([2]; SNB-19, SNB19 cells): 6.8 ± 1.2 µM
EC90 ([2]; SNB-19, SNB19 cells): 9.5 ± 1.5 µM
EC50 ([2]; Vero cells): 12.4 ± 3 µM
EC90 ([2]; Vero cells): 45.2 ± 6.2 µM
EC50 ([3]; A 172, A172 cells, viral RNA copy number by RT-qPCR): 8.8 ± 1.9 µM
EC90 ([3]; A 172, A172 cells, viral RNA copy number by RT-qPCR, read-out: EC90): 11.8 ± 1.4 µM
EC90 ([3]; HUVEC): 23.2 ± 3 µM
EC50 ([3]; HUVEC, HUVECs, viral RNA copy number by RT-qPCR): 14.5 ± 1.2 µM
EC50 ([3]; Huh-7, Huh7 cells, viral RNA copy number by RT-qPCR): 11.1 ± 1.6 µM
EC90 ([3]; Huh-7, Huh7 cells, viral RNA copy number by RT-qPCR, read-out: EC90): 21.6 ± 1 µM
EC50 ([3]; SNB-19, SNB19 cells, viral RNA copy number by RT-qPCR): 9.2 ± 2.4 µM
EC90 ([3]; SNB-19, SNB19 cells, viral RNA copy number by RT-qPCR, read-out: EC90): 17.3 ± 4.8 µM
EC50 ([3]; A549 cells, viral RNA copy number by RT-qPCR): 13 ± 3.3 µM
EC90 ([3]; A549 cells, viral RNA copy number by RT-qPCR, read-out: EC90): 17.8 ± 5.3 µM
EC50 ([3]; Vero cells, viral RNA copy number by RT-qPCR): 12.5 ± 2.2 µM
EC90 ([3]; Vero cells, viral RNA copy number by RT-qPCR, read-out: EC90): 52.1 ± 5.5 µM
maximum non-toxic dose ([4]; C57BL/6J (Ifnar1-/-), mouse, in vivo, 10 days): > 200 mg/kg
MPV ([4]; Ifnar1-/- C57BL/6J mice, 200 mg/kg, 10-day treatment, mean ± SD): 4.95 ± 0.59 fL
ALB ([4]; mouse, in vivo, 200 mg/kg): 29.11 ± 5.19 g/L
ALP ([4]; mouse, in vivo, 200 mg/kg): 185.3±19.2 U/L
ALT ([4]; mouse, in vivo, 200 mg/kg): 39.1±4.22 U/L
AST ([4]; mouse, in vivo, 200 mg/kg): 130.74±18.3 U/L
BUN ([4]; mouse, in vivo, 200 mg/kg): 31.6 ± 3.54 mg/dL
CR ([4]; mouse, in vivo, 200 mg/kg): 17.62 ± 1.84 µmol/L
Gran# ([4]; mouse, in vivo, 200 mg/kg): 0.92±0.23 10^9/L
Gran% ([4]; mouse, in vivo, 200 mg/kg): 19.82±4.42%
HCT ([4]; mouse, in vivo, 200 mg/kg): 38.96±2.72%
HGB ([4]; mouse, in vivo, 200 mg/kg): 124.14 ± 14.36 g/L
Lymph# ([4]; mouse, in vivo, 200 mg/kg): 3.21±1.01 10^9/L
Lymph% ([4]; mouse, in vivo, 200 mg/kg): 75.75±8.94%
MCH ([4]; mouse, in vivo, 200 mg/kg): 14.73 ± 0.88 pg
MCHC ([4]; mouse, in vivo, 200 mg/kg): 302 ± 21.82 g/L
MCV ([4]; mouse, in vivo, 200 mg/kg): 51.61 ± 1.84 fL
Mon# ([4]; mouse, in vivo, 200 mg/kg): 0.16±0.07 10^9/L
Mon% ([4]; mouse, in vivo, 200 mg/kg): 3.75±0.94%
PDW ([4]; mouse, in vivo, 200 mg/kg): 16.65±0.35
PLT ([4]; mouse, in vivo, 200 mg/kg): 891.6±337.3 10^9/L
RBC ([4]; mouse, in vivo, 200 mg/kg): 7.51±1.44 10^12/L
RDW ([4]; mouse, in vivo, 200 mg/kg): 17.56±1.04%
T-BIL ([4]; mouse, in vivo, 200 mg/kg): 21.14 ± 1.87 µmol/L
T-CHO ([4]; mouse, in vivo, 200 mg/kg): 3.12 ± 1.33 mmol/L
TBA ([4]; mouse, in vivo, 200 mg/kg): 12.75 ± 1.54 µmol/L
TG ([4]; mouse, in vivo, 200 mg/kg): 2.11 ± 0.45 mmol/L
UA ([4]; mouse, in vivo, 200 mg/kg): 182.61 ± 23.8 µmol/L
WBC ([4]; mouse, in vivo, 200 mg/kg): 4.25±1.11 10^9/L
γ-GT ([4]; mouse, in vivo, 200 mg/kg): 2.75±0.81 U/L
amount of ZIKV NS3 protein ([5]; SNB19 cell lysates, time-dependent): decreased
ZIKV NS5 and E proteins ([5]; SNB19 cells, MOI 1.0 and 2.0): decreased
absorption through the gastrointestinal tract [6]: minimally absorbed
plasma concentration [6]: nanogram-per-milliliter scale
